Measured values published in ChEMBL document CHEMBL3885861, “Open TG-GATES”.

Species on record: Rattus norvegicus
Experiment: Open TG-GATES - Regimen: Single
Format: toxicity, organism-based, Sprague-Dawley
Design: regimen Single, gender Male, age 6 weeks
Settings: in vivo, po, 0 mg/kg, route gavage, dose level Control; for APTT / Bas / Eos / Fbg / Hb / Ht / Lym / MCH / MCHC / MCV / Mono / Neu / PT / Plat / RBC / Ret / WBC: tissue Blood; for KIDNEY_L / KIDNEY_R / KIDNEY_TOTAL: tissue Kidney; for LIVER: tissue Liver; for A/G / ALP / ALT / AST / BUN / CRE / Ca / Cl / DBIL / GLC / IP / K / LDH / Na / PL / RALB / TBIL / TC / TG / TP / gamma-GTP: tissue Plasma

COc1ccc(Cl)cc1C(=O)NCCc1ccc(S(=O)(=O)NC(=O)NC2CCCCC2)cc1 [GLYBURIDE]
TERMINAL_BW (3 h): 216 g
APTT (3 h): 19.2 s
Bas (3 h): 0%
Eos (3 h): 1%
Fbg (3 h): 221.2 mg/dL
Hb (3 h): 13.2 g/dL
Ht (3 h): 40.6%
Lym (3 h): 70.4%
MCH (3 h): 21 pg
MCHC (3 h): 32.4%
MCV (3 h): 64.7 fL
Mono (3 h): 3%
Neu (3 h): 24.4%
PT (3 h): 12.3 s
Plat (3 h): 125.5 x10_4/uL
RBC (3 h): 628.8 x10_4/ul
Ret (3 h): 8%
WBC (3 h): 84.1 x10_2/uL
KIDNEY_L (3 h): 1 g
KIDNEY_R (3 h): 1 g
KIDNEY_TOTAL (3 h): 1.9 g
LIVER (3 h): 10.1 g
A/G (3 h): 1.7
ALP (3 h): 1085 IU/L
ALT (3 h): 41.8 IU/L
AST (3 h): 70.8 IU/L
BUN (3 h): 11.8 mg/dL
CRE (3 h): 0.4 mg/dL
Ca (3 h): 11 mg/dL
Cl (3 h): 104 meq/L
DBIL (3 h): 0.2 mg/dL
GLC (3 h): 191.6 mg/dL
IP (3 h): 8.8 mg/dL
K (3 h): 3.8 meq/L
LDH (3 h): 166.6 IU/L
Na (3 h): 141 meq/L
PL (3 h): 187.6 mg/dL
RALB (3 h): 3.5 g/dL
TBIL (3 h): 0.2 mg/dL
TC (3 h): 88 mg/dL
TG (3 h): 160.2 mg/dL
TP (3 h): 5.6 g/dL
gamma-GTP (3 h): 0.8 IU/L
TERMINAL_BW (6 h): 212.5 g
APTT (6 h): 19.8 s
Bas (6 h): 0%
Eos (6 h): 1%
Fbg (6 h): 228.6 mg/dL
Hb (6 h): 13.6 g/dL
Ht (6 h): 42.2%
Lym (6 h): 70.2%
MCH (6 h): 20.1 pg
MCHC (6 h): 32.2%
MCV (6 h): 62.4 fL
Mono (6 h): 3.4%
Neu (6 h): 24.2%
PT (6 h): 12.5 s
Plat (6 h): 122.5 x10_4/uL
RBC (6 h): 676.8 x10_4/ul
Ret (6 h): 7.8%
WBC (6 h): 87.5 x10_2/uL
KIDNEY_L (6 h): 1 g
KIDNEY_R (6 h): 1 g
KIDNEY_TOTAL (6 h): 2 g
LIVER (6 h): 9.5 g
A/G (6 h): 1.6
ALP (6 h): 1140.4 IU/L
ALT (6 h): 35 IU/L
AST (6 h): 67.4 IU/L
BUN (6 h): 8.8 mg/dL
CRE (6 h): 0.4 mg/dL
Ca (6 h): 10.9 mg/dL
Cl (6 h): 103 meq/L
DBIL (6 h): 0.092 mg/dL
GLC (6 h): 207.2 mg/dL
IP (6 h): 9.8 mg/dL
K (6 h): 3.6 meq/L
LDH (6 h): 159.4 IU/L
Na (6 h): 141.2 meq/L
PL (6 h): 148.6 mg/dL
RALB (6 h): 3.5 g/dL
TBIL (6 h): 0.2 mg/dL
TC (6 h): 77.2 mg/dL
TG (6 h): 65.2 mg/dL
TP (6 h): 5.6 g/dL
gamma-GTP (6 h): 1 IU/L
TERMINAL_BW (9 h): 213.3 g
APTT (9 h): 19.1 s
Bas (9 h): 0%
Eos (9 h): 1%
Fbg (9 h): 220 mg/dL
Hb (9 h): 13 g/dL
Ht (9 h): 39.7%
Lym (9 h): 77%
MCH (9 h): 20.8 pg
MCHC (9 h): 32.7%
MCV (9 h): 63.6 fL
Mono (9 h): 2.2%
Neu (9 h): 18.8%
PT (9 h): 12.7 s
Plat (9 h): 133.8 x10_4/uL
RBC (9 h): 625.4 x10_4/ul
Ret (9 h): 8.1%
WBC (9 h): 102.8 x10_2/uL
KIDNEY_L (9 h): 0.9 g
KIDNEY_R (9 h): 0.9 g
KIDNEY_TOTAL (9 h): 1.9 g
LIVER (9 h): 8.8 g
A/G (9 h): 1.7
ALP (9 h): 1066.8 IU/L
ALT (9 h): 30.8 IU/L
AST (9 h): 61.6 IU/L
BUN (9 h): 10.8 mg/dL
CRE (9 h): 0.4 mg/dL
Ca (9 h): 10.1 mg/dL
Cl (9 h): 102.2 meq/L
DBIL (9 h): 0.09 mg/dL
GLC (9 h): 216.2 mg/dL
IP (9 h): 11.1 mg/dL
K (9 h): 3.5 meq/L
LDH (9 h): 125.8 IU/L
Na (9 h): 140.8 meq/L
PL (9 h): 137.4 mg/dL
RALB (9 h): 3.4 g/dL
TBIL (9 h): 0.1 mg/dL
TC (9 h): 72.8 mg/dL
TG (9 h): 52.2 mg/dL
TP (9 h): 5.4 g/dL
gamma-GTP (9 h): 1.6 IU/L
TERMINAL_BW (24 h): 226.7 g
APTT (24 h): 18.3 s
Bas (24 h): 0.4%
Eos (24 h): 1%
Fbg (24 h): 218.6 mg/dL
Hb (24 h): 13.2 g/dL
Ht (24 h): 38%
Lym (24 h): 77%
MCH (24 h): 21.7 pg
MCHC (24 h): 34.7%
MCV (24 h): 62.4 fL
Mono (24 h): 2.4%
Neu (24 h): 18.6%
PT (24 h): 12.5 s
Plat (24 h): 126.2 x10_4/uL
RBC (24 h): 609.6 x10_4/ul
Ret (24 h): 7.7%
WBC (24 h): 105.9 x10_2/uL
KIDNEY_L (24 h): 1 g
KIDNEY_R (24 h): 1 g
KIDNEY_TOTAL (24 h): 2 g
LIVER (24 h): 10.9 g
A/G (24 h): 1.5
ALP (24 h): 1024.2 IU/L
ALT (24 h): 32.2 IU/L
AST (24 h): 61.4 IU/L
BUN (24 h): 16.4 mg/dL
CRE (24 h): 0.4 mg/dL
Ca (24 h): 10.7 mg/dL
Cl (24 h): 102.2 meq/L
DBIL (24 h): 0.1 mg/dL
GLC (24 h): 215.6 mg/dL
IP (24 h): 7.5 mg/dL
K (24 h): 3.7 meq/L
LDH (24 h): 189.6 IU/L
Na (24 h): 141.2 meq/L
PL (24 h): 146.2 mg/dL
RALB (24 h): 3.3 g/dL
TBIL (24 h): 0.2 mg/dL
TC (24 h): 73.2 mg/dL
TG (24 h): 97.8 mg/dL
TP (24 h): 5.4 g/dL
gamma-GTP (24 h): 1.4 IU/L
